This is an account of results in PMC6469167, “Cholecystokinin-2 Receptor Targeting with Novel C-terminally Stabilized HYNIC-Minigastrin Analogs Radiolabeled with Technetium-99m” (Pharmaceuticals, 2019).

A short description of one data set: physchem. The data set is classed as physicochemical. On the procedure: The resistance against degradation of [^99mTc]Tc-HYNIC-MGS5 and [^99mTc]Tc-HYNIC-MGS11 (1000 pmol/mL, n = 2) in human serum was studied for up to 24 h. Furthermore, the radiopeptides were incubated in PBS (1000 pmol/mL, n = 1). At each time point of 1, 2, 4 and 24 h after incubation the intact radiopeptide was assessed by analytical HPLC. Serum samples were precipitated with ACN and centrifuged to collect the supernatant and diluted with water prior to radio-HPLC. […] From each phase a 75 µL sample was taken, the radioactivity measured in a 2480 Wizard^2 automatic gamma-counter (PerkinElmer Life Sciences and Analytical Sciences, Wallac Oy, Turku, Finland) and the distribution of the radiopeptides calculated. The protein binding in human serum (500 pmol/mL, n = 2) was assessed by Sephadex G-50 size-exclusion chromatography (GE Healthcare Illustra, Little Chalfont, UK) for up to 24 h.

Data set [1] relates to A431-CCK2R and A431-mock tumor-xenografts. Further details: species or system athymic BALB/c nude mice. The conditions noted are these: mouse, in vivo. As for the experimental part:
Biodistribution studies evaluating the tumor uptake of [^99mTc]Tc-HYNIC-MGS5 and [^99mTc]Tc-HYNIC-MGS11 were performed in 7 week-old female athymic BALB/c nude mice (Charles River, Sulzfeld, Germany). To induce tumor-xenografts, mice were injected subcutaneously with 2 × 10^6 A431-CCK2R (right flank) and A431-mock cells (left flank). The tumor-xenografts were allowed to grow for 11–12 days reaching medium tumor weights of ~0.2 g. Mice were randomly divided into groups of four and injected intravenously via a lateral tail vein with 0.3 MBq of the ^99mTc-labeled HYNIC-analogs (corresponding to ~15 pmol total peptide). The groups of animals were sacrificed at 1 h and 4 h p.i., tumors and other tissues (blood, lung, heart, muscle, bone, spleen, intestine, liver, kidney, stomach and pancreas) were removed, weighed, and the radioactivity measured together with a standard in the gamma counter. Results were expressed as percentage of injected activity per gram tissue (% IA/g) and tumor-to-organ activity ratios were calculated for selected tissues. […] The radioactivity in selected organs (stomach, pancreas, liver, kidneys, A431-CCK2R and A431-mock xenograft) was additionally visualized by autoradiography using a phosphorimager (Cyclone Plus, PerkinElmer Life Sciences and Analytical Sciences, Downers Grove, Il, USA). […]

Structures are written as SMILES.

The term logD denotes the decadic logarithm of the distribution of all forms, ionised or not, between an organic phase and buffer at a given pH. Compound `CCCC[C@@H](C(=O)N[C@@H](CC(=O)O)C(=O)N(C)[C@@H](Cc1cccc2ccccc12)C(N)=O)N(C)C(=O)[C@H](Cc1c[nH]c2ccccc12)NC(=O)CNC(=O)[C@H](Cc1ccc(O)cc1)NC(=O)[C@H](C)NC(=O)[C@@H](CCC(=O)O)NC(=O)c1ccc(NN)nc1` [[^99mTc]Tc-HYNIC-MGS11, metal not drawn] registered a logD in the data set “physchem” of -2.84 ± 0.08. In data set [1], the tumor-to-kidney ratio is 2.0–2.6.

In the case of `CCCC[C@@H](C(=O)N[C@@H](CC(=O)O)C(=O)N[C@@H](Cc1cccc2ccccc12)C(N)=O)N(C)C(=O)[C@H](Cc1c[nH]c2ccccc12)NC(=O)CNC(=O)[C@H](Cc1ccc(O)cc1)NC(=O)[C@H](C)NC(=O)[C@@H](CCC(=O)O)NC(=O)c1ccc(NN)nc1` [[^99mTc]Tc-HYNIC-MGS5, metal not drawn], the logD in “physchem” is -2.91 ± 0.06. For the same compound, the tumor-to-kidney ratio in data set [1] is reported as 2.4–3.3.
